# Assay results from the NIST ThermoML archive (doi:10.1021/je400755x).
# ± gives the expanded uncertainty stated by the source.
# Conditions: Liquid, Closed cell (Static) method
vapor or sublimation pressure (313.05 K) [kPa],vapor or sublimation pressure (322.92 K) [kPa],vapor or sublimation pressure (333 K) [kPa],vapor or sublimation pressure (342.76 K) [kPa],vapor or sublimation pressure (352.84 K) [kPa],vapor or sublimation pressure (362.75 K) [kPa],vapor or sublimation pressure (369.36 K) [kPa],Compound,vapor or sublimation pressure (298.88 K) [kPa],vapor or sublimation pressure (308.19 K) [kPa],vapor or sublimation pressure (313.35 K) [kPa],vapor or sublimation pressure (323.13 K) [kPa],vapor or sublimation pressure (323.19 K) [kPa],vapor or sublimation pressure (323.75 K) [kPa],vapor or sublimation pressure (333.47 K) [kPa],vapor or sublimation pressure (343.12 K) [kPa],vapor or sublimation pressure (343.83 K) [kPa],vapor or sublimation pressure (352.3 K) [kPa],vapor or sublimation pressure (353.05 K) [kPa],vapor or sublimation pressure (363.03 K) [kPa],vapor or sublimation pressure (369.15 K) [kPa]
56 ± 20,78 ± 20,109 ± 20,147 ± 20,197 ± 20,256 ± 20,303 ± 20,"C=CCCC=C [1,5-hexadiene]",–,–,–,–,–,–,–,–,–,–,–,–,–
–,–,–,–,–,–,–,C=CCCl [3-chloro-1-propene],55 ± 20,75 ± 20,90 ± 20,125 ± 20,126 ± 20,126 ± 20,173 ± 20,228 ± 20,233 ± 20,294 ± 20,301 ± 20,389 ± 20,454 ± 20
